Experimental data reported in patent US10022358B2, “Methods for improving muscle and heart function” (BioVentures, LLC, priority 2013, dated 2018).
“Also recorded” adds a separate entry of the source.

Legend:
[1] = test system: patients with heart failure; conditions: dietary supplementation; cited from earlier work
[2] = test system: muscle protein synthesis; conditions: cited from earlier work
[3] = test system: nitric oxide (NO) synthesis; test: Isotopic tracer study of plasma arginine and NO synthesis during citrulline ingestion (FIG. 5); format: in vivo, human
Method: FIG. 5 depicts plasma arginine responses (A) and nitric oxide (NO) synthesis rates (B) in basal period and during ingestion of 3 g of citrulline (CIT) sip ingestion over 3 hours in elderly (n=8, 77±9y, 93±4 kg) and young individuals (n=8, 27±9y, 70±5 kg).
Briefly, elderly (n=8, 77±9y, 93±4 kg) and young individuals (n=8, 27±9y, 70±5 kg) ingested 3 grams of citrulline over 3 hours and plasma arginine response and nitric oxide (NO) synthesis rates were quantified. […] Thus, oral ingestion of citrulline is very effective in increasing peripheral arginine concentration and NO synthesis in elderly subjects with heart failure.

[4] = test system: mitochondrial biogenesis; conditions: cited from earlier work
[5] = test system: carnitinepalmitoyltransferase (CPT)-1; test: CPT-1 activity in heart mitochondria of old animals treated with oral propionyl-L-carnitine (FIG. 8); format: in vivo, rodent; conditions: old hearts, oral treatment, p<0.02, n=6
Text: FIG. 8 depicts graphs showing carnitinepalmitoyltransferase (CPT)-1activity decreases with age in mitochondria (2 vs 18 mos, p<0.004).
Appropriate regulation of energy substrate metabolism not only involves relatively normal insulin sensitivity, but also adequate number and functional capacity of mitochondria. One aspect of mitochondrial function is the rate of production of mitochondrial proteins. […] In addition to adequate protein content in mitochondria, it is necessary that substrates, particularly long-chain fatty acids, are not limited in their ability to enter the mitochondria, or in their complete oxidation once inside the mitochondria. The capacity to oxidize fatty acids is reduced in patients with major inflammatory responses due to reduced carnitine palmitoyltransferase 1 (CPT1) activity. Unimpaired capacity to oxidize fatty acids is important because the energy to perform low-intensity exercise, including activities of daily living that individuals with heart failure often struggle with, is provided by the oxidation of fatty acids.

[6] = 3 g citrulline sip ingestion over 3 hours, elderly and young

N=C(N)NCCC[C@H](N)C(=O)O [arginine]
blood pressure [1]: reduces blood pressure
duration until exhaustion on a treadmill walk [1]: increased duration until exhaustion
right ventricular function [1]: improves right ventricular function
effect on muscle protein synthesis when NO synthesis pharmacologically blocked [2]: effective even when given when NO synthesis was pharmacologically blocked

NC(=O)NCCC[C@H](N)C(=O)O [citrulline]
nitric oxide (NO) synthesis rate [3, 6]: stimulated production of NO
plasma arginine response [3, 6]: effectively increased the concentration of arginine in the blood
increase in NO synthesis in elderly ([3]; elderly with heart failure, 3 g citrulline over 3 hours): physiologically significant

CC(C)C[C@H](N)C(=O)O [leucine]
mitochondrial biogenesis [4]: stimulate mitochondrial biogenesis

CCC(=O)O[C@H](CC(=O)[O-])C[N+](C)(C)C [propionyl-L-carnitine]
CPT-1 activity in mitochondria [5]: can restore CPT-1 activity to that of young hearts; also recorded: restored CPT to that of young hearts
